Key:
Assay in all cases: Test C pre/postemergence
Assay type in all cases: in vivo
[1] = test system: giant foxtail (Setaria faberii); conditions: Setaria faberi, pre-emergence, Preemergence, read-out: Plant response rating, Foxtail, Giant
Summary of the method: (§1)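 Test compounds, formulated in a non-phytotoxic solvent mix with surfactant, were applied to freshly planted seeds and, at the same time, to emerged plants at 1- to 4-leaf stage (2 to 18 cm). After 12 to 14 days in the greenhouse, response was scored visually versus controls, 0 = no effect, 100 = complete control.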

[2] = test system: common (oilseed) sunflower (Helianthus annuus); conditions: Helianthus annuus, pre-emergence, Preemergence, read-out: Plant response rating, Sunflower
Summary of the method: as §1

[3] = test system: pigweed (Amaranthus retroflexus); conditions: Amaranthus retroflexus, pre-emergence, Preemergence, read-out: Plant response rating, Pigweed
Summary of the method: as §1

[4] = test system: woolly cupgrass (Eriochloa villosa); conditions: Eriochloa villosa, pre-emergence, Preemergence, read-out: Plant response rating, Cupgrass, Woolly
Summary of the method: as §1

[5] = test system: velvetleaf (Abutilon theophrasti); conditions: Abutilon theophrasti, pre-emergence, Preemergence, read-out: Plant response rating, Velvetleaf
Summary of the method: as §1

[6] = test system: johnsongrass (Sorghum halepense); conditions: Sorghum halepense, pre-emergence, Preemergence, read-out: Plant response rating, Johnsongrass
Summary of the method: as §1

kochia (Kochia scoparia) = conditions: Bassia scoparia, pre-emergence, Preemergence, read-out: Plant response rating, Kochia
Summary of the method: as §1

[7] = test system: Surinam grass (Brachiaria decumbens); conditions: Urochloa decumbens, pre-emergence, Preemergence, read-out: Plant response rating, Surinam Grass
Summary of the method: as §1

[8] = test system: cocklebur (Xanthium strumarium); conditions: Xanthium strumarium, pre-emergence, Preemergence, read-out: Plant response rating, Cocklebur
Summary of the method: as §1

[9] = test system: yellow nutsedge (Cyperus esculentus); conditions: Cyperus, pre-emergence, Preemergence, read-out: Plant response rating, Nutsedge, Yellow
Summary of the method: as §1

[10] = test system: morningglory (Ipomoea coccinea); conditions: Ipomoea, pre-emergence, Preemergence, read-out: Plant response rating, Morningglory
Summary of the method: as §1

[11] = 62 g ai/ha, scale 0 to 100, 0 no effect, 100 complete control

Nc1nc(C2CC2)nc(C=O)c1Br [Compound 26]
pest or weed control at 62 g/ha [1, 11]: 0%
pest or weed control at 125 g/ha ([1]; 125 g ai/ha, scale 0 to 100): 0%
pest or weed control at 250 g/ha ([1]; 250 g ai/ha, scale 0 to 100): 0%
pest or weed control at 500 g/ha ([1]; 500 g ai/ha, scale 0 to 100): 10%
pest or weed control at 62 g/ha [2, 11]: 0%
pest or weed control at 125 g/ha ([2]; 125 g ai/ha, scale 0 to 100): 20%
pest or weed control at 250 g/ha ([2]; 250 g ai/ha, scale 0 to 100): 70%
pest or weed control at 500 g/ha ([2]; 500 g ai/ha, scale 0 to 100): 90%
pest or weed control at 62 g/ha [3, 11]: 30%
pest or weed control at 125 g/ha ([3]; 125 g ai/ha, scale 0 to 100): 100%
pest or weed control at 250 g/ha ([3]; 250 g ai/ha, scale 0 to 100): 100%
pest or weed control at 500 g/ha ([3]; 500 g ai/ha, scale 0 to 100): 100%
pest or weed control at 62 g/ha [4, 11]: 0%
pest or weed control at 125 g/ha ([4]; 125 g ai/ha, scale 0 to 100): 0%
pest or weed control at 250 g/ha ([4]; 250 g ai/ha, scale 0 to 100): 0%
pest or weed control at 500 g/ha ([4]; 500 g ai/ha, scale 0 to 100): 0%
pest or weed control at 62 g/ha [5, 11]: 0%
pest or weed control at 125 g/ha ([5]; 125 g ai/ha, scale 0 to 100): 10%
pest or weed control at 250 g/ha ([5]; 250 g ai/ha, scale 0 to 100): 90%
pest or weed control at 500 g/ha ([5]; 500 g ai/ha, scale 0 to 100): 90%
pest or weed control at 62 g/ha [6, 11]: 0%
pest or weed control at 250 g/ha ([6]; 250 g ai/ha, scale 0 to 100): 0%
pest or weed control at 500 g/ha ([6]; 500 g ai/ha, scale 0 to 100): 100%
pest or weed control at 62 g/ha (kochia (Kochia scoparia); [11]): 0%
pest or weed control at 500 g/ha (kochia (Kochia scoparia); 500 g ai/ha, scale 0 to 100): 50%
pest or weed control at 62 g/ha [7, 11]: 0%
pest or weed control at 125 g/ha ([7]; 125 g ai/ha, scale 0 to 100): 0%
pest or weed control at 250 g/ha ([7]; 250 g ai/ha, scale 0 to 100): 10%
pest or weed control at 500 g/ha ([7]; 500 g ai/ha, scale 0 to 100): 10%
pest or weed control at 62 g/ha [8, 11]: 70%
pest or weed control at 125 g/ha ([8]; 125 g ai/ha, scale 0 to 100): 70%
pest or weed control at 250 g/ha ([8]; 250 g ai/ha, scale 0 to 100): 90%
pest or weed control at 500 g/ha ([8]; 500 g ai/ha, scale 0 to 100): 95%
pest or weed control at 62 g/ha [9, 11]: 0%
pest or weed control at 125 g/ha ([9]; 125 g ai/ha, scale 0 to 100): 0%
pest or weed control at 250 g/ha ([9]; 250 g ai/ha, scale 0 to 100): 0%
pest or weed control at 500 g/ha ([9]; 500 g ai/ha, scale 0 to 100): 0%
pest or weed control at 62 g/ha [10, 11]: 0%
pest or weed control at 125 g/ha ([10]; 125 g ai/ha, scale 0 to 100): 5%
pest or weed control at 250 g/ha ([10]; 250 g ai/ha, scale 0 to 100): 85%
pest or weed control at 500 g/ha ([10]; 500 g ai/ha, scale 0 to 100): 90%
